This passage reports IC50 results from patent US8399459B2, “1,4 oxazines as BACE1 and/or BACE2 inhibitors” (Hoffmann-La Roche Inc., priority 2011, dated 2013).

Assay [1] has as its target T1, BACE1 (Homo sapiens, UniProt P56817).
T1 construct: Human HEK293 cells which are stably transfected with a vector expressing a cDNA of the human APP wt gene (APP695); endogenous in cells; host or cells: HEK293 (human), stably transfected with human APP695 wt only
Kind of assay: Cellular Aβ-lowering assay (Aβ40 ELISA, HEK293 cells expressing human APP695). Conditions: HEK293 cells stably expressing human APP695; Aβ40 in supernatant after 18-20 hrs. It counts as cell-based. As for the experimental part: Cellular Aβ-Lowering Assay:
Human HEK293 cells which are stably transfected with a vector expressing a cDNA of the human APP wt gene (APP695) were used to assess the potency of the compounds in a cellular assay. The cells were seeded in 96-well microtiter plates in cell culture medium (Iscove, plus 10% (v/v) fetal bovine serum, glutamine, penicillin/streptomycin) to about 80% confluence and the compounds were added at a 10× concentration in 1/10 volume of medium without FCS containing 8% DMSO (final concentration of DMSO was kept at 0.8% v/v). After 18-20 hrs incubation at 37° C. and 5% CO2 in a humidified incubator the culture supernatant was harvested for the determination of Aβ40 concentrations. 96well ELISA plates (e.g., Nunc MaxiSorb) were coated with monoclonal antibody which specifically recognize the C-terminal end of Aβ40 (Brockhaus et al., NeuroReport 9, 1481-1486; 1998). After blocking of non-specific binding sites with e.g. 1% BSA and washing, the culture supernatants were added in suitable dilutions together with a horseradish peroxidase-coupled Aβ detection antibody (e.g., antibody 4G8, Senetek, Maryland Heights, Mo.) and incubated for 5 to 7 hrs. Subsequently the wells of the microtiter plate were washed extensively with Tris-buffered saline containing 0.05% Tween 20 and the assay was developed with tetramethylbenzidine/H2O2 in citric acid buffer. After stopping the reaction with one volume 1 N H2SO4 the reaction was measured in an ELISA reader at 450 nm wavelength. The concentrations of Aβ in the culture supernatants were calculated from a standard curve obtained with known amounts of pure Aβ peptide.

In assay [2] the target is T2, recombinant human cathepsin E (Homo sapiens, UniProt P14091).
T2 construct: purchased R&D Systems
T2 sequence (P14091 54-396): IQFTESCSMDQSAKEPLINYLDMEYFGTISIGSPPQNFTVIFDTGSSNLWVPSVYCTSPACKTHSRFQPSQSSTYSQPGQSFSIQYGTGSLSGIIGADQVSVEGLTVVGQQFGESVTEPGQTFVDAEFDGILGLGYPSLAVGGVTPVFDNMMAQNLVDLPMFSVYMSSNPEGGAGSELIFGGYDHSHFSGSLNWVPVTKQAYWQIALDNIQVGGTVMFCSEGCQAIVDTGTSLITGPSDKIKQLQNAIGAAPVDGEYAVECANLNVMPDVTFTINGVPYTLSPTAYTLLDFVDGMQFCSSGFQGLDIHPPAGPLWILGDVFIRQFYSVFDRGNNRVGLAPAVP
Briefly: Cathepsin E fluorescent substrate kinetic assay. It counts as biochemical. The following applies: pH 4.5, substrate MR121-[…]. The source says: (§1) Cathepsin D and Cathepsin E Fluorescent Substrate Kinetic Assays
(§2) The MR121 fluorescence assays described below are based on the fact that MR121 forms a non-fluorescent ground state complex with tryptophan. In solution this formation occurs at millimolar concentrations of tryptophan. The mechanism can be used to design a generic biochemical assay for proteases. A substrate peptide is labeled at the N-terminus with tryptophan and at the C-terminus with the fluorophore MR121 (for cathepsin D the 10 amino acid peptide […]-MR121 was used; for cathepsin E, MR121-[…] was used). In absence of protease activity, the substrates remain intact and the MR121 fluorescence is reduced by the high local Trp-concentration. If the substrates are cleaved by the enzymes the MR121 fluorescence is recovered.
(§3) The fluorescent substrate cathepsin D and cathepsin E kinetic assays were performed at room temperature in 384-well microtiter plates (black with clear flat bottom, non binding surface plates from Corning) in a final volume of 51 μl. […] The enzymatic reaction was followed in a plate: vision reader (Perkin Elmer) (excitation wavelength: 630 nm; emission: 695 nm) for at least 30 minutes in a kinetic measurement detecting an increase of MR121 fluorescence during the reaction time. […]

Assay [3] concerns the target T3, cathepsin D (from human liver) (Homo sapiens, UniProt P07339).
T3 construct: cathepsin D (from human liver, Calbiochem); purchased Calbiochem; host or cells: purified from human liver
Briefly: Cathepsin D fluorescent substrate kinetic assay. In kind it is biochemical. The following applies: pH 5.5, substrate […]-MR121.
From the text: as §1, §2, §3

T1 sequence (P56817 46-501): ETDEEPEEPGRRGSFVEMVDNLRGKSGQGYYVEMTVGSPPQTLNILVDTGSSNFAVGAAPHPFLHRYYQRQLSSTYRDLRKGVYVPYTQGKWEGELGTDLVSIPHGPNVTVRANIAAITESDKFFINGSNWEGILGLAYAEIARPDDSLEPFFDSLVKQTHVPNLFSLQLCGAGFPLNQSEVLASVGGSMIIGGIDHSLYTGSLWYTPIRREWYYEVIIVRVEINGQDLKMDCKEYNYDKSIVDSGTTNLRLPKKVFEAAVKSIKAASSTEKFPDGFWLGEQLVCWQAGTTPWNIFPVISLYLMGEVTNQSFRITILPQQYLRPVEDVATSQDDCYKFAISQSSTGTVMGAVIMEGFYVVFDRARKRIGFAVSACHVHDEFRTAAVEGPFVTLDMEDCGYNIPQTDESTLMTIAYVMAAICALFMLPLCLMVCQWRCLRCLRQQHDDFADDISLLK
T3 sequence (P07339 65-162 limits assumed): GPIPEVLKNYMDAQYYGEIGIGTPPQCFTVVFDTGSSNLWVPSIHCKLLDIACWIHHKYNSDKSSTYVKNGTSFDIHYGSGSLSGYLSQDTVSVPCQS
T3 sequence (P07339 169-412 limits assumed): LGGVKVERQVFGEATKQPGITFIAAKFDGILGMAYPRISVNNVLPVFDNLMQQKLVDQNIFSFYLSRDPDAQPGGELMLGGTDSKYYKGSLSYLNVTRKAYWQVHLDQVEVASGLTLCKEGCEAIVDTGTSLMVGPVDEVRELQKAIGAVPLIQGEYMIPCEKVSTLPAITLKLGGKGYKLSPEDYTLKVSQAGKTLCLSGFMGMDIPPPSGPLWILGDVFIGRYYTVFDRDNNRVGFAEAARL

For `CC1(c2cccc(-c3cc(Cl)cc(Cl)c3)c2)COCC(N)=N1` (stereo not drawn) [Example 32, 5-(3′,5′-Dichloro-biphenyl-3-yl)-5-methyl-5,6-dihydro-2H-[1,4]oxazin-3-ylamine], the IC50 (usually the concentration that inhibits the measured activity by half) in assay [1] came out at 1.53 µM; in assay [2] it was 3.8 µM; in assay [3], 2.8 µM.
`CC1(c2cc(-c3cncnc3)ccc2F)COCC(N)=N1` (stereo not drawn) [Example 36, 5-(2-Fluoro-5-pyrimidin-5-yl-phenyl)-5-methyl-5,6-dihydro-2H-[1,4]oxazin-3-ylamine]: the values for the IC50 in assay [1], in assay [2] and in assay [3] were 0.98 µM, 13 µM and 34 µM, respectively.
